Laboratory results reported in US20130089601A1, “METHOD FOR TREATING ATHEROSCLEROSIS” (KAOHSIUNG MEDICAL UNIVERSITY, priority 2009, published 2013).

Experiments:
Assay type in all cases: cell-based, human
MCP-1 = MCP-1 secreted from VSMC, sandwich enzyme immunoassay
Description: Monocyte chemotactic protein-1 (MCP-1) is a well established atherosclerotic biomarker and it was examined to further test for the influence of microRNA-195 on the atherogenic biomarker. VSMC cells in six-well plates were grown to confluence and then cultivated in a serum-free medium for 24 hours before the experiment. After transfection of microRNA-195 for 24 hours, the cells were further incubated with ox-LDL and simvastatin for another 24 hours. The supernatants of the conditioned medium were collected and frozen at −70° C. The culture supernatants were analyzed to determine the MCP-1 using Sandwich Enzyme Immunoassay kits (BD Biosciences) according to the manufacturer protocol.

[1] = test system: vascular smooth muscle cells (VSMC); assay: WST-1 cell proliferation assay of VSMC stimulated with ox-LDL; details: ox-LDL 40 μg/ml, 24 hours
Description: The experiments were conducted in the primary aortic smooth muscle cells (purchased as cryopreserved tertiary cultures from Cascade Biologics, OR, USA) at passages 4 to 8. The VSMC cells were maintained in an M231 culture medium supplemented with fetal bovine serum (FBS, 5%), human epidermal growth factor (10 ng/ml), human basic fibroblast growth factor (3 ng/ml), insulin ([…]), penicillin (100 units/ml), streptomycin ([…]), and Fungizone ([…]). The cultures were kept at a temperature of 37° C. in an atmosphere of 5% CO2 in air.
The transfection was performed using a siPort NeoFx reagent (Ambion) and VSMC cell proliferation and migration were evaluated 24 hours after the microRNA-195 transfection. In addition, simvastatin was used, a widely used lipid lowering drug and anti-atherosclerosis drug, to test the influence of microRNA-195 levels by simvastatin.
VSMC is an established model for atherosclerosis studies and when atherosclerosis incursion VSMC proliferation increases. A VSMC proliferation rate was used as a surrogate for the development of atherosclerosis, which was assessed by WST-1. By using a 1-3 μL siPort NeoFx (Ambion) reagent, 0-120 nM of microRNA-195 (Pre-miR™ miRNA, hsa-miR-195 (product ID PM10827), Ambion Inc.) was transfected into the VSMC cells while they were incubated with ox-LDL (40 μg/ml) for 24 hours. […] The microplates were then read by a spectrophotometer by measuring the absorbance of a dye with a wavelength of 450 nm and a reference wavelength of 600 nm (Benchmark PLUS Microplate Spectrophotometer, Bio-Rad) and plotted. […]
Cell proliferation of the VSMC was evaluated following incubation in ox-LDL (40 μg/ml) for 24 hours in the presence of microRNA-195 (Pre-miR miRNA, hsa-miR-195 (product ID PM10827), Ambion Inc.) (100 nM), simvastatin (1 nM) or Panax Notoginseng (in a form of water extract with concentration of 1 mg/ml; Chuang Song Zong Pharmaceutical co. Ltd), or in the presence of microRNA-195 (100 nM) with simvastatin (1 nM) or with Panax Notoginseng (in a form of water extract with concentration of 1 mg/ml). […]

[2] = test system: THP-1 cells adherent to HUVEC; assay: In vitro adhesion assay of THP-1 cells to HUVEC co-cultured with transfected HASMCs; details: in the presence of ox-LDL, vs NC-miR
From the text: MicroRNA-195 mimic, microRNA-195 inhibitor and negative control microRNA (NC-miR) were purchased from Ambion Inc. (TX, USA) with the sequences information shown as microRNA-195 mimic, 5′-[…]-3′ (SEQ ID NO: 5); microRNA-195 inhibitor, 5′-[…]-3′ (SEQ ID NO: 6); negative control sequence, 5′-AGUACUGCUUACGAUACGG-3′ (SEQ ID NO: 7). MicroRNA -195 inhibitor was used to specifically bind to and inhibit endogenous microRNA-195. The NC-miR is a random sequence pre-miR molecule that has been extensively tested in human cell lines and tissues and validated to produce no identifiable effects on known miRNA function. […]
At first, human aorta smooth muscle cells (HASMCs) were seeded on the inner side of Millicell® with the PET membrane (Millipore, Hanging 24-well cell culture inserts) at a density of 3×10^5 cells/cm^2 and transfected with microRNA-195 mimic mimic by using lipofectamine2000 for 24 hours. […] Then 4 ml of new culture medium was put in each dish and they were incubated overnight at 37° C. in 5% CO2 and 95% air humidified atmosphere to get ready for use in adhesion experiments of THP-1 cells.
To visualize the THP-1 cells adherent to the HUVEC-HASMC co-culture, the THP-1 cells were labeled with a fluorescent dye, calcein-AM. Fluorescence-labeled cells were resuspended in 4 ml of IMDM containing 10% FCS and prepared for use in adhesion experiments. […]

For “microRNA-195: Pre-miR miRNA, hsa-miR-195 (product ID PM10827), Ambion Inc., which mimics precursor for mature human miR-195; mimic 5′-UAGCAGCACAGAAAUAUUGGC-3′ (SEQ ID NO: 5) (chemistry not given here)”, the “effect on reducing the atherogenic biomarker (MCP-1) compared with simvastatin” value (MCP-1; ox-LDL stimulation) was “stronger effect”, the MCP-1 levels (MCP-1; transfection 24 hours then ox-LDL 24 hours, culture supernatant) was “significantly decrease” and the “reduction of VSMC cell proliferation” value ([1]; 30 nM transfected) was 21%. For the same substance, the “reduction of VSMC cell proliferation” value ([1]; 60 nM transfected) was 29%, the “reduction of VSMC cell proliferation” value ([1]; 120 nM transfected) was 45% and the “THP-1 cells adhering to HUVEC” value [2] was “fewer”.
